The text below walks through data of ChEMBL document CHEMBL1201862, “PubChem BioAssay data set” (2004).

Among the test systems are A498; HCT-116; HCT-15; IGROV-1; MDA-MB-231; MOLT-4; NCI-H522; PC-3; RPMI-8226; SF-295; SK-MEL-2; SK-OV-3; SNB-75; SW-620; U-251; CAKI-1; NCI-H460; SF-539; UACC-257; HCC 2998.
Experiment in all cases: NCI-60 cell line screen, 48 h

The structures appear in SMILES notation.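 Each compound was tested at five concentrations against cells in 96-well plates for 48 hours. GI50 marks 50% less growth.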 The source made the active and inactive calls. No stated cut-off is given here; in the data, active = GI50 up to about 1.1 µM and inactive = higher.

Consider `CN(C)CCNC(=O)c1cccc2c(NCC(=O)O)c3ccccc3nc12`, for which the GI50 in the assay with A498 is 18.6 µM (inactive); in the assay on HCT-116, 4.67 µM (inactive); in the assay with HCT-15, 10.1 µM; with IGROV-1 it was 8.51 µM (inactive); in the assay on MDA-MB-231 it was 14.7 µM (inactive); with MOLT-4 it was 4.08 µM (inactive). The GI50 was 10.6 µM (inactive) with NCI-H522; 10.5 µM (inactive) with PC-3; 16.5 µM (inactive) with RPMI-8226; 10.9 µM (inactive) in the assay with SF-295; 16.7 µM (inactive) in the assay with SK-MEL-2; 21.1 µM (inactive) with SK-OV-3. In addition, the GI50 with SNB-75 is 17.6 µM (inactive); in the assay with SW-620, 6.62 µM (inactive); in the assay on U-251, 24.5 µM (inactive).
For `COc1c(O)cc2c(c1O)C(=O)/C(=C/c1ccc(O)cc1)CO2`, the GI50 is 40 µM (inactive) with A498; 22.2 µM (inactive) in the assay with CAKI-1; 14.8 µM with HCT-15; 24.7 µM (inactive) in the assay with IGROV-1; 40.2 µM (inactive) with MDA-MB-231; 36 µM (inactive) in the assay on MOLT-4. For the same compound, the GI50 in the assay on NCI-H460 was 30.1 µM (inactive); in the assay with NCI-H522 it was 14.4 µM (inactive); in the assay on PC-3, 43 µM (inactive); in the assay with RPMI-8226, 9.33 µM (inactive); with SF-295, 37.7 µM (inactive); with SF-539, 20.5 µM (inactive). For the same compound, the GI50 in the assay with SK-MEL-2 was 27 µM (inactive); in the assay with SK-OV-3 it was 24.7 µM (inactive); in the assay on SNB-75 it was 21.2 µM (inactive); with SW-620, 26.7 µM (inactive); with U-251, 33.7 µM (inactive); in the assay with UACC-257, 31.9 µM (inactive).
Regarding `Cc1cc(S(=O)(=O)[N-]/C(=N/S(=O)(=O)c2ccc(Cl)cc2)[n+]2ccc(N(C)C)cc2)c(S)cc1Cl`, the GI50 in the assay on A498 is 26.4 µM (inactive); with CAKI-1, > 100 µM (inactive); with HCC 2998 it was > 100 µM (inactive); in the assay on HCT-116, 20.5 µM (inactive); in the assay on HCT-15, 75.7 µM; in the assay on IGROV-1, > 100 µM (inactive). Besides, the GI50 was > 100 µM (inactive) with MDA-MB-231; 0.656 µM (active) with MOLT-4; 48.3 µM (inactive) with NCI-H460; 28.7 µM (inactive) in the assay with NCI-H522; 54 µM (inactive) in the assay on PC-3; 48 µM (inactive) in the assay on RPMI-8226. Besides, the GI50 with SF-295 is 40.2 µM (inactive); in the assay with SF-539, 83.4 µM (inactive); with SK-MEL-2, > 100 µM (inactive); in the assay on SK-OV-3, 41.2 µM (inactive); in the assay on SW-620, 58.3 µM (inactive); with U-251, 47 µM (inactive). The GI50 with UACC-257 is > 100 µM (inactive).
For `Cc1ccc2c(c1)[n+]([O-])c(N)n[n+]2[O-]`, the GI50 was 75.3 µM (inactive) in the assay with A498; > 100 µM (inactive) in the assay with CAKI-1; > 100 µM (inactive) in the assay on HCT-116; 64.9 µM with HCT-15; 51.5 µM (inactive) in the assay with IGROV-1; > 100 µM (inactive) with MDA-MB-231. Besides, the GI50 is > 100 µM (inactive) in the assay on MOLT-4; 47.8 µM (inactive) in the assay with NCI-H460; 39.6 µM (inactive) in the assay on NCI-H522; > 100 µM (inactive) in the assay on PC-3; > 100 µM (inactive) with RPMI-8226; > 100 µM (inactive) in the assay on SF-295. The GI50 in the assay on SF-539 was > 100 µM (inactive); in the assay with SK-MEL-2, > 100 µM (inactive); with SK-OV-3, > 100 µM (inactive); in the assay on SNB-75 it was 58.1 µM (inactive); in the assay on SW-620 it was > 100 µM (inactive); in the assay with U-251, > 100 µM (inactive). Besides, in the assay on UACC-257, the GI50 was > 100 µM (inactive).
For the compound `CCOC(=O)c1cc2c([nH]1)c(O)cc1c2ccn1Cc1ccccc1`, the GI50 was 29.8 µM (inactive) in the assay with A498; 22 µM (inactive) in the assay on CAKI-1; 19 µM (inactive) in the assay on HCC 2998; 11.6 µM (inactive) in the assay with HCT-116; 15.1 µM in the assay with HCT-15; 19.3 µM (inactive) in the assay with IGROV-1. For the same compound, the GI50 is 23.5 µM (inactive) with MDA-MB-231; 1.91 µM (inactive) with MOLT-4; 19.5 µM (inactive) with NCI-H460; 16.1 µM (inactive) in the assay with PC-3; 8.41 µM (inactive) in the assay on RPMI-8226; 15.8 µM (inactive) in the assay with SF-295. Besides, the GI50 is 19.4 µM (inactive) in the assay with SF-539; 20.4 µM (inactive) in the assay on SK-MEL-2; 20.7 µM (inactive) in the assay on SK-OV-3; 22.2 µM (inactive) with SNB-75; 18 µM (inactive) in the assay with SW-620; 16.7 µM (inactive) with U-251. Also, the GI50 with UACC-257 is 19.7 µM (inactive).
Take `O=C1CCSSCCC(=O)NCCN1`: the GI50 is > 100 µM (inactive) with A498; > 100 µM (inactive) in the assay with CAKI-1; > 100 µM (inactive) with HCT-116; more than 100 µM in the assay on HCT-15; > 100 µM (inactive) in the assay on IGROV-1; > 100 µM (inactive) in the assay with MDA-MB-231. Further, the GI50 with MOLT-4, in the assay on NCI-H460, in the assay on NCI-H522, with PC-3, in the assay on RPMI-8226 and with SF-295 was > 100 µM (inactive) each time. Besides, the GI50 with SF-539, in the assay with SK-MEL-2, with SK-OV-3, in the assay on SW-620, with U-251 and in the assay on UACC-257 was > 100 µM (inactive) throughout.
Take `COc1ccc(CC2COc3cc(OC)cc(OC)c3C2=O)cc1` (configuration not stated): the GI50 with A498 was 79.3 µM (inactive); in the assay with CAKI-1 it was 17.5 µM (inactive); in the assay on HCT-116, 15.3 µM (inactive); with HCT-15, 9.51 µM; in the assay with IGROV-1, 28.7 µM (inactive); with MDA-MB-231 it was 33.3 µM (inactive). Besides, the GI50 in the assay on MOLT-4 was 30.3 µM (inactive); in the assay on NCI-H460, 29.6 µM (inactive); in the assay with NCI-H522 it was 9.14 µM (inactive); with PC-3 it was 22.5 µM (inactive); in the assay with RPMI-8226, 15.3 µM (inactive); with SF-295, 17.5 µM (inactive). For the same compound, the GI50 was 14.4 µM (inactive) in the assay on SF-539; 36.5 µM (inactive) in the assay with SK-MEL-2; 19.8 µM (inactive) in the assay on SK-OV-3; 29.8 µM (inactive) with SW-620; 37 µM (inactive) with U-251; 32.5 µM (inactive) in the assay on UACC-257.
As to `CCOC(=O)c1nc2ccccc2nc1Oc1ccc(OC)cc1`, the GI50 with A498 is > 100 µM (inactive); in the assay with HCT-116, > 100 µM (inactive); in the assay on HCT-15, more than 100 µM; in the assay with IGROV-1, > 100 µM (inactive); in the assay on MDA-MB-231 it was > 100 µM (inactive); in the assay on MOLT-4, > 100 µM (inactive). Also, the GI50 in the assay with NCI-H460 is > 100 µM (inactive); in the assay on NCI-H522, 29 µM (inactive); with PC-3 it was > 100 µM (inactive); in the assay on RPMI-8226, > 100 µM (inactive); in the assay with SF-295, > 100 µM (inactive); in the assay on SF-539, > 100 µM (inactive). The GI50 in the assay with SK-MEL-2, with SK-OV-3, in the assay on SW-620, in the assay with U-251 and in the assay with UACC-257 was > 100 µM (inactive) each time.
`CCCCN1C(=O)CS/C1=N/Nc1nc2c([nH]1)c(=O)n(C)c(=O)n2C`: the GI50 was > 100 µM (inactive) in the assay with A498; > 100 µM (inactive) with CAKI-1; > 100 µM (inactive) in the assay with HCC 2998; 15.2 µM (inactive) in the assay with HCT-116; more than 100 µM in the assay with HCT-15; > 100 µM (inactive) in the assay with IGROV-1. In addition, the GI50 in the assay on MDA-MB-231 is 29 µM (inactive); in the assay on MOLT-4, 21.8 µM (inactive); in the assay with NCI-H460, 13.7 µM (inactive); with NCI-H522 it was 61.7 µM (inactive); in the assay with PC-3 it was > 100 µM (inactive); in the assay with RPMI-8226 it was 42.4 µM (inactive). Further, the GI50 with SF-295 is 7.35 µM (inactive); in the assay with SF-539, 37.8 µM (inactive); in the assay on SK-MEL-2, 30 µM (inactive); in the assay on SK-OV-3 it was 6.47 µM (inactive); in the assay with U-251, 15 µM (inactive); with UACC-257 it was > 100 µM (inactive).
Consider `N[C@@H]1C[C@H](N)c2c(Cl)sc(Cl)c21`, for which the GI50 in the assay on A498 was 61.5 µM (inactive); with CAKI-1 it was > 100 µM (inactive); with HCC 2998, > 100 µM (inactive); in the assay on HCT-116, > 100 µM (inactive); in the assay with HCT-15 it was more than 100 µM; with IGROV-1, > 100 µM (inactive). Also, the GI50 in the assay with MDA-MB-231, with MOLT-4, with NCI-H460, with PC-3, with RPMI-8226 and with SF-295 was > 100 µM (inactive) each time. Besides, the GI50 with SF-539, in the assay with SK-MEL-2, in the assay with SNB-75, in the assay on SW-620, in the assay on U-251 and in the assay with UACC-257 was > 100 µM (inactive) each time.
Turning to `NC(=O)N/N=C1/CCC(O)CC1CC(=O)O` (configuration not stated), the GI50 in the assay with A498 was > 100 µM (inactive); with CAKI-1, > 100 µM (inactive); in the assay on HCT-116, > 100 µM (inactive); with HCT-15, more than 100 µM; in the assay with IGROV-1, > 100 µM (inactive); in the assay with MDA-MB-231 it was > 100 µM (inactive). In addition, the GI50 in the assay with MOLT-4, with NCI-H460, in the assay on NCI-H522, in the assay with PC-3, with RPMI-8226 and in the assay on SF-295 was > 100 µM (inactive) in each case. Further, the GI50 in the assay with SF-539, in the assay on SK-MEL-2, in the assay on SK-OV-3, with SW-620, in the assay with U-251 and in the assay on UACC-257 was > 100 µM (inactive) throughout.
